Earlier results in US20180289729A1, “COMBINATION THERAPY FOR TREATMENT OF HUMAN NEURODEGENERATIVE DISEASES” (priority 2017, published 2018).

Columns and labels:
hippocampal neurogenesis = details: rat models
[1] = system: proliferating neural stem and progenitor cells within the hippocampal dentate gyrus; details: both young and "old" mice models

Row | SMILES | effect on hippocampal neurogenesis (hippocampal neurogenesis) | increase in the number of proliferating neural stem and progenitor cells within the hippocampal dentate gyrus [1]
1 | CCCCCCC(C)(C)c1cc(O)c2c(c1)OC(C)(C)[C@@H]1CC=C(CO)C[C@@H]21 [[(6aR)-trans-3-(1,1-dimethylheptyl)-6a, 7,10,10a-tetrahydro-1-hydroxy-6,6-dimethyl-6H-dibenzo [b,d]pyran-9-methanol]] | dramatic effect | –
2 | Cc1cccc(-c2n[nH]cc2-c2ccc3ncccc3n2)n1 [2-(3-(6-methylpyricin-2-yl)-1H-pyrazol-4-yl)-1,5-naphthyridine] | – | two-fold increase
